Assay results: patent US8017602B2, “N-(2-(2-(5-hydroxy-3-oxo-3,4-dihydro-2H-benzo[b][1,4]oxazin-8-yl)ethylamino)ethyl)-3-(phenethoxy)propanamide derivatives, processes for their preparation, pharmaceutical compositions containing them and their use in therapy” (AstraZeneca AB, priority 2008, dated 2011)
Structures can show the parent of a compound that is named as a salt.

Legend:
[1] = target: T1, recombinant human Dopamine Subtype D2s receptors (Homo sapiens, UniProt P14416); assay: Dopamine D2 selectivity binding assay ([3H]-spiperone); conditions: inhibition of [3H]-spiperone binding, human D2s membranes; read-out: D2 bind pIC50 (converted)
T1 construct: purchased Perkin Elmer
Procedure, shortened: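 Competition against 0.16 nM [3H]-spiperone on membranes with recombinant human D2s receptors in HEPES buffer pH 7.4 with NaCl and gelatin, 2 h at room temperature. Filtration and scintillation counting, non-specific binding from 10 μM haloperidol. pIC50 derived from a four-parameter logistic fit.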

[2] = target: T2, recombinant human adrenergic beta 1 receptors (Homo sapiens, UniProt P08588); assay: Adrenergic β1 selectivity binding assay ([125I]-Iodocyanopindolol); conditions: inhibition of [125I]-Iodocyanopindolol binding, human β1 membranes; read-out: β1 bind p IC50 (converted)
T2 construct: purchased Euroscreen
Procedure, shortened: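 Membranes with recombinant human β1 receptors in HEPES/EDTA/NaCl/gelatin buffer, pH 7.4, competed against [125I]-iodocyanopindolol (0.036 nM final), 2 h at room temperature; 10 μM propranolol defined non-specific binding. Filter-bound radioactivity counted; pIC50 from four-parameter logistic fit.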

[3] = target: T3, recombinant human α1D receptor (Homo sapiens, UniProt P25100); assay: Adrenergic α1D selectivity binding assay ([3H]-prazosin); conditions: inhibition of [3H]-prazosin binding, HEK293 membranes, read-out: α1 bind pIC50 (converted)
T3 construct: expressed in transfected cells; host or cells: HEK293
T3 sequence (P25100 1-572): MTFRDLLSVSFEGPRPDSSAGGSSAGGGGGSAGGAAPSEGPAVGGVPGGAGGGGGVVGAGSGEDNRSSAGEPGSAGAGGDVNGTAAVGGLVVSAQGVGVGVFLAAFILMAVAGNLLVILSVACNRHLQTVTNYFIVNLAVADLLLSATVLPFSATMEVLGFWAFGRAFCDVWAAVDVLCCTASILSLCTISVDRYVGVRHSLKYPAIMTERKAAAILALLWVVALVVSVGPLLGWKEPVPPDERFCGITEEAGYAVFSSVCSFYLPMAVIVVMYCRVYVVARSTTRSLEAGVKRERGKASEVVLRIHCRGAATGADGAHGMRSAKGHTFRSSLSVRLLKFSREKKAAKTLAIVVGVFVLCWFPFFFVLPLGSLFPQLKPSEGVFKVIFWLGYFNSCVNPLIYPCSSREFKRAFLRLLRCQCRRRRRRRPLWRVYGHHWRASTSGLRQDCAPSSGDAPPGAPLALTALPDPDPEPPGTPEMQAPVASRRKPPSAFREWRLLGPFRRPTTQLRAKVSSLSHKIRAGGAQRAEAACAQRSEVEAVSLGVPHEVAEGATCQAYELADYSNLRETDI
Procedure, shortened: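 HEK293 membranes expressing human α1D were incubated 2 h at room temperature with 0.3 nM [3H]-prazosin in HEPES/EDTA pH 7.4 buffer. Nonspecific binding was defined with 10 μM BMY7378. After filtration and scintillation counting, pIC50 was derived by four-parameter logistic fit.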

T2 sequence (P08588 whole entry): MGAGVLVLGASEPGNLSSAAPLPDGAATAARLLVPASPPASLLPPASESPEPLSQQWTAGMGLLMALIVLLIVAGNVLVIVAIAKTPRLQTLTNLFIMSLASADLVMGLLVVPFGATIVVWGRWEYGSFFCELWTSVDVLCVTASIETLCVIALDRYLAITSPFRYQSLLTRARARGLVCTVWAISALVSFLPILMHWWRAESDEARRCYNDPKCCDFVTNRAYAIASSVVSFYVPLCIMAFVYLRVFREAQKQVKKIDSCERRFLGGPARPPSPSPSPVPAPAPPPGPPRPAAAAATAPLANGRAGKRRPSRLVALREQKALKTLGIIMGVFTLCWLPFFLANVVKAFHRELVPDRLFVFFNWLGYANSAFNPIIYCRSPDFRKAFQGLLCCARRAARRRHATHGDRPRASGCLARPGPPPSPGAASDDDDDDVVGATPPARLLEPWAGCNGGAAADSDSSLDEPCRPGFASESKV
T1 sequence (P14416 1-414 isoform P14416-2): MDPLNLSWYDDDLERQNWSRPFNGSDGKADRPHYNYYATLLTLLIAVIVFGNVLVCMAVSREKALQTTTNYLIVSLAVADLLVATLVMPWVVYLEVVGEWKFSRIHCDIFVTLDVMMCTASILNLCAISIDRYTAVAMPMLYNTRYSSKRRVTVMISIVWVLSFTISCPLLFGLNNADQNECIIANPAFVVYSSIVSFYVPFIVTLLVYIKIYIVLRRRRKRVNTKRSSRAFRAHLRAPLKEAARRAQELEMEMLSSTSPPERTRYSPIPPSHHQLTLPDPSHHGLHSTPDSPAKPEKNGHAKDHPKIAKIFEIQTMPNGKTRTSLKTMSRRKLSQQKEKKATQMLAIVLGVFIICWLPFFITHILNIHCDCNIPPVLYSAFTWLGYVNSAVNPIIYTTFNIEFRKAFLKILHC

Row | IC50 [1] [nM] | IC50 [2] [nM] | IC50 [3] [nM] | Compound
1 | 2000 | > 7940 | 1580 | CCn1ccnc1-c1cccc(CCOCCC(=O)N(CCNCCc2ccc(O)c3c2OCC(=O)N3)C2CCCCC2)c1 [Example 29, N-Cyclohexyl-3-(3-(1-ethyl-1H-imidazol-2-yl)phenethoxy)-N-(2-(2-(5-hydroxy-3-oxo-3,4-dihydro-2H-benzo[b][1,4]oxazin-8-yl)ethylamino)ethyl)propanamide Trifluoroacetic Acid Salt]
2 | 3160 | > 7940 | 2000 | Cn1cc(-c2cccc(CCOCCC(=O)N(CCNCCc3ccc(O)c4c3OCC(=O)N4)C3CCCCC3)c2)nn1 [Example 05, N-Cyclohexyl-N-(2-(2-(5-hydroxy-3-oxo-3,4-dihydro-2H-benzo[b][1,4]oxazin-8-yl)ethylamino)ethyl)-3-(3-(1-methyl-1H-1,2,3-triazol-4-yl)phenethoxy)propanamide Trifluoroacetic Acid Salt]
3 | 2510 | > 10000 | 1000 | O=C1COc2c(CCNCCN(C(=O)CCOCCc3cccc(-c4c[nH]nn4)c3)C3CCCCC3)ccc(O)c2N1 [Example 14, 3-(3-(1H-1,2,3-Triazol-4-yl)phenethoxy)-N-cyclohexyl-N-(2-(2-(5-hydroxy-3-oxo-3,4-dihydro-2H-benzo[b][1,4]oxazin-8-yl)ethylamino)ethyl)propanamide Trifluoroacetic Acid Salt]
4 | 3160 | > 10000 | 2000 | Cn1ccnc1-c1cccc(CCOCCC(=O)N(CCNCCc2ccc(O)c3c2OCC(=O)N3)C2CCCCC2)c1 [Example 33, N-Cyclohexyl-N-(2-(2-(5-hydroxy-3-oxo-3,4-dihydro-2H-benzo[b][1,4]oxazin-8-yl)ethylamino)ethyl)-3-(3-(1-methyl-1H-imidazol-2-yl)phenethoxy)propanamide]
5 | 2000 | 6310 | 501 | Cn1cc(-c2cccc(CCOCCC(=O)N(CCNCCc3ccc(O)c4c3OCC(=O)N4)C3CCCCC3)c2F)cn1 [Example 16, N-Cyclohexyl-3-(2-fluoro-3-(1-methyl-1H-pyrazol-4-yl)phenethoxy)-N-(2-(2-(5-hydroxy-3-oxo-3,4-dihydro-2H-benzo[b][1,4]oxazin-8-yl)ethylamino)ethyl)propanamide Trifluoroacetic Acid Salt]
6 | 3160 | 5010 | 1260 | CCn1cc(-c2cccc(CCOCCC(=O)N(CCNCCc3ccc(O)c4c3OCC(=O)N4)C3CCCC3)c2)cn1 [Example 24, N-Cyclopentyl-3-(3-(1-ethyl-1H-pyrazol-4-yl)phenethoxy)-N-(2-(2-(5-hydroxy-3-oxo-3,4-dihydro-2H-benzo[b][1,4]oxazin-8-yl)ethylamino)ethyl)propanamide Trifluoroacetic Acid Salt]
7 | 631 | 5010 | 631 | Cc1nc(-c2cccc(CCOCCC(=O)N(CCNCCc3ccc(O)c4c3OCC(=O)N4)C3CCCCC3)c2)[nH]c1C [Example 32, N-Cyclohexyl-3-(3-(4,5-dimethyl-1H-imidazol-2-yl)phenethoxy)-N-(2-(2-(5-hydroxy-3-oxo-3,4-dihydro-2H-benzo[b][1,4]oxazin-8-yl)ethylamino)ethyl)propanamide]
